From patent US20250213581A1, “COMBINATION THERAPY OF A PI3K INHIBITOR AND KRAS INHIBITOR AND METHODS OF USE THEREOF” (Totus Medicines Inc., priority 2022, published 2025) come the findings set out here.

Holding throughout (test): Cell proliferation assay (CellTiter-Glo, 3 days), single agent
Common to all, as to assay type: cell-based
Details in all cases: 3 days treatment; read-out: Absolute IC50
In general terms: Cellular ATP, detected with luciferase, serves as a proxy for viable cell number.

For one assay, the system named is NCI-H1373 (Lung). The method, then:
(§1) Two duplicate plates were set up.
(§2) At day 0, 10 μL culture medium to each well for T0 reading. […] Compound I was diluted and 10 μL of each 10× compound I from working solutions for a concentration ranging from 10 μM to about 0.005 μM. Cisplatin was diluted to about 3.33 mM to about 150 nM.
(§3) IC50's were determined for each cell line.

For another assay, the system named is SW837 (Rectum). The method, then:
as §1, §2, §3

The subject of another assay is NCI-H1792 (Lung). The method, then: as §1, §2, §3
Another assay deals with HCC44 (Lung). The method, then:
as §1, §2, §3

The test system of a further assay is KYSE-410 (HN/Esophagus). On the procedure: as §1, §2, §3
A further assay has as its system MIA PaCa-2 (Pancreas). On the procedure: as §1, §2, §3
The next assay has as its system Calu-1 (Lung). On the procedure:
as §1, §2, §3

Another assay deals with SW1463 (rectum). On the procedure:
as §1, §2, §3

For the next assay, the system named is NCI-H2122 (Lung). On the procedure: as §1, §2, §3
The test system of a further assay is NCI-H358 (Lung). The method, then: as §1, §2, §3
The subject of another assay is SW756 (Cervix). The method, then: as §1, §2, §3
The subject of a further assay is UM-UC-3 (bladder). The method, then:
as §1, §2, §3

The test system of a further assay is NCI-H23 (Lung). On the procedure:
as §1, §2, §3

In general, IC50 refers to the concentration at which inhibition is half-maximal. For `N.N.[Cl][Pt][Cl]` [Cisplatin, reference compound], the IC50 in the assay on NCI-H1373 (Lung) was 8.72 µM; in the assay on SW837 (Rectum) it was 42.5 µM; in the assay with NCI-H1792 (Lung) it was 4.88 µM; in the assay with HCC44 (Lung), 7.96 µM; in the assay on KYSE-410 (HN/Esophagus), 15.8 µM; in the assay with MIA PaCa-2 (Pancreas), 7.03 µM. The IC50 in the assay with Calu-1 (Lung) turned out to be 10.2 µM; with SW1463 (rectum), 12.2 µM; in the assay with NCI-H2122 (Lung), 17.8 µM; with NCI-H358 (Lung) it was 12.5 µM; in the assay with SW756 (Cervix), 10.3 µM; in the assay on UM-UC-3 (bladder), 1.86 µM. Also, the concentration for half-maximal inhibition (IC50) with NCI-H23 (Lung) was 3.58 µM.
